Literature values, collected in patent US20080214562A1, “Chemical Compounds” (priority 2005, published 2008).

System: T-tropic HIV
Conditions: patients that are dual tropic or where only the T-tropic form of the virus is present

c1cc(CN2CCCNCCNCCCNCC2)ccc1CN1CCCNCCNCCCNCC1 [AMD-3100]
T-tropic HIV viral load: significantly reduce
